Reference: patent publication US4520022A, “Substituted vinyl cephalosporins” (priority 1983, dated 1985)
Values after ≈ are worked out from the molar mass of the structure shown. Like-named read-outs stand apart in the source and are kept apart here.

Experiments:
S. aureus BX-1633 = assay: Protective dose PD50, mice infected with lethal inoculum, oral treatment, S. aureus BX-1633; format: in vivo; details: Staphylococcus aureus, BX1633, 120 h
S. pyogenes A20201 = assay: Protective dose PD50, mice infected with lethal inoculum, oral treatment, S. pyogenes A20201; format: in vivo; details: Streptococcus pyogenes, 120 h
H. influenza A9729 = assay: Protective dose PD50, mice infected with lethal inoculum, oral treatment, H. influenza A9729; format: in vivo; details: Mus musculus, 120 h
Source text: The structure activity correlations drawn from the foregoing in vitro studies are born out by the results of in vivo studies in mice. Table 4 is a tabulation of the protective doses for mice infected with a lethal inoculum of a bacteria. Two different bacteria were employed in the studies, one a Gram+ organism and the other a Gram- organism. The protective dose (PD50) is that dose which when administered to a group of infected mice results in 50% survival after five days. Normally untreated infected mice die within three days following injection of the lethal inoculum.
Protective Dose PD50 for Mice Infected with Lethal Inoculum

P. mirabilis A9554 = assay: Protective dose PD50, mice infected with lethal inoculum, oral treatment, P. mirabilis A9554; format: in vivo
S. pyogenes = assay: In vitro activity against Streptococci (MIC), S. pyogenes; format: cell-based
S. pneumoniae = assay: In vitro activity against Streptococci (MIC), S. pneumoniae; format: cell-based; details: Streptococcus pneumoniae
N. gonorrheae = assay: In vitro activity against Neisseria (MIC), N. gonorrheae; format: cell-based
N. meningitidis = assay: In vitro activity against Neisseria (MIC), N. meningitidis; format: cell-based
H. influenzae = assay: In vitro activity against Haemophilis (MIC), H. influenzae; format: cell-based; details: Haemophilus influenzae, Compound 9 lot 2
[1] = mouse, in vivo
in vivo = details: mouse; for half-life: T1/2
[2] = system: Gp Ib: S. aureus 193, BX-1633-2 A9606, A15092, Russell, A9602; details: Staphylococcus aureus, read-out: Minimum Inhibitory Concentration Gp Ib, Mueller-Hinton agar, average of five organisms
[3] = system: Gp Ia: S. aureus Smith A9537, A9497, Terajima, A9534, A9601; details: Staphylococcus aureus, read-out: Minimum Inhibitory Concentration Gp Ia, Mueller-Hinton agar, average of five organisms
B. fragilis = assay: In vitro activity against anaerobes (MIC), B. fragilis; format: cell-based; details: Bacteroides fragilis
C. difficile A21675 = assay: In vitro activity against anaerobes (MIC), C. difficile; format: cell-based; details: Clostridioides difficile, A21675
P. acnes A21933 = assay: In vitro activity against anaerobes (MIC), P. acnes; format: cell-based; details: Cutibacterium acnes, A21933
P. anaerobius A21905 = assay: In vitro activity against anaerobes (MIC), P. anaerobius; format: cell-based; details: Peptostreptococcus anaerobius, A21905
[4] = N. gonorrheae A20143, Compound 9 lot 2
[5] = N. gonorrheae A20154, Compound 9 lot 2
[6] = N. gonorrheae A20155, Compound 9 lot 2
[7] = N. meningitidis A21487; Compound 9 lot 2
[8] = N. meningitidis A21496; Compound 9 lot 2
[9] = N. meningitidis A21497; Compound 9 lot 2

Compound `CC1=C(C(=O)O)N2C(=O)[C@@H](NC(=O)[C@H](N)c3ccc(O)cc3)[C@H]2SC1` [Cefadroxil] has an ED50 (S. aureus BX-1633) of 7.2 mg/kg, an ED50 (S. pyogenes A20201) of 0.25 mg/kg and an ED50 (H. influenza A9729) of 25 mg/kg. The “Protective Dose PD50” value (P. mirabilis A9554) was 14, the MIC (S. pyogenes; Streptococcus pyogenes, S. pyogenes A9604, Compound 9 lot 2, read-out: MIC) was 0.8 µg/mL (≈ 2.2 µM) and the MIC (S. pyogenes; Streptococcus pyogenes, S. pyogenes A15040, Compound 9 lot 2, read-out: MIC) was 0.8 µg/mL (≈ 2.2 µM). It also gave an MIC (S. pyogenes; Streptococcus pyogenes, S. pyogenes A20065, Compound 9 lot 2, read-out: MIC) of 0.8 µg/mL (≈ 2.2 µM), an MIC (S. pyogenes; Streptococcus pyogenes, S. pyogenes A20201, Compound 9 lot 2, read-out: MIC) of 0.4 µg/mL (≈ 1.1 µM) and an MIC (S. pyogenes; Streptococcus pyogenes, S. pyogenes Dick, Compound 9 lot 2, read-out: MIC) of 0.8 µg/mL (≈ 2.2 µM). The MIC (S. pyogenes; Streptococcus pyogenes, S. pyogenes S-23, Dick, A9604, A20065, A15040, Compound 9 lot 2, read-out: MIC, Geometric Mean) was 0.8 µg/mL (≈ 2.2 µM), the MIC (S. pyogenes; Streptococcus pyogenes, S. pyogenes S-23, Compound 9 lot 2, read-out: MIC) was 0.8 µg/mL (≈ 2.2 µM) and the MIC (S. pneumoniae; S. pneumoniae A9585, Compound 9 lot 2, read-out: MIC) was 1.6 µg/mL (≈ 4.4 µM). It also gave an MIC (S. pneumoniae; S. pneumoniae A15069, Compound 9 lot 2, read-out: MIC) of 1.6 µg/mL (≈ 4.4 µM), an MIC (S. pneumoniae; S. pneumoniae A20759, Compound 9 lot 2, read-out: MIC) of 3.1 µg/mL (≈ 8.53 µM) and an MIC (S. pneumoniae; S. pneumoniae Type I, Compound 9 lot 2, read-out: MIC) of 1.6 µg/mL (≈ 4.4 µM). For the same compound, the MIC (S. pneumoniae; S. pneumoniae Type II, I, III, A9585, A15069, Compound 9 lot 2, read-out: MIC, Geometric Mean) was 1.6 µg/mL (≈ 4.4 µM), the MIC (S. pneumoniae; S. pneumoniae Type II, Compound 9 lot 2, read-out: MIC) was 1.6 µg/mL (≈ 4.4 µM) and the MIC (S. pneumoniae; S. pneumoniae Type III, Compound 9 lot 2, read-out: MIC) was 1.6 µg/mL (≈ 4.4 µM). For the same compound, the MIC (N. gonorrheae; N. gonorrheae A20142, Compound 9 lot 2) was 6.3 µg/mL (≈ 17.3 µM), the MIC (N. gonorrheae; [4]) was 6.3 µg/mL (≈ 17.3 µM) and the MIC (N. gonorrheae; [5]) was 6.3 µg/mL (≈ 17.3 µM). It also gave an MIC (N. gonorrheae; [6]) of 6.3 µg/mL (≈ 17.3 µM), an MIC (N. gonorrheae; read-out: MIC) of 6.3 µg/mL (≈ 17.3 µM) and an MIC (N. gonorrheae; read-out: MIC, Geometric Mean) of 6.3 µg/mL (≈ 17.3 µM). The MIC (N. meningitidis; [7]) was 6.3 µg/mL (≈ 17.3 µM), the MIC (N. meningitidis; [8]) was 6.3 µg/mL (≈ 17.3 µM) and the MIC (N. meningitidis; [9]) was 6.3 µg/mL (≈ 17.3 µM). The MIC (N. meningitidis; Neisseria meningitidis; read-out: MIC) was 6.3 µg/mL (≈ 17.3 µM), the MIC (N. meningitidis; Neisseria meningitidis; read-out: MIC, Geometric Mean) was 6.3 µg/mL (≈ 17.3 µM) and the MIC (H. influenzae; H. influenzae A9729, read-out: MIC) was 6.3 µg/mL (≈ 17.3 µM). The MIC (H. influenzae; H. influenzae A9833, read-out: MIC) was 6.3 µg/mL (≈ 17.3 µM), the MIC (H. influenzae; H. influenzae A20177, read-out: MIC) was 6.3 µg/mL (≈ 17.3 µM) and the MIC (H. influenzae; H. influenzae A20193, read-out: MIC) was 6.3 µg/mL (≈ 17.3 µM). For the same compound, the MIC (H. influenzae; H. influenzae A21523, read-out: MIC) was 6.3 µg/mL (≈ 17.3 µM), the MIC (H. influenzae; H. influenzae A22157, read-out: MIC) was 6.3 µg/mL (≈ 17.3 µM) and the MIC (H. influenzae; H. influenzae A22481, read-out: MIC) was 6.3 µg/mL (≈ 17.3 µM). It also gave an MIC (H. influenzae; H. influenzae A22482, read-out: MIC) of 6.3 µg/mL (≈ 17.3 µM), an MIC (H. influenzae; H. influenzae A22483, read-out: MIC) of 6.3 µg/mL (≈ 17.3 µM) and an MIC (H. influenzae; H. influenzae A22491, read-out: MIC) of 6.3 µg/mL (≈ 17.3 µM). For the same compound, the MIC (H. influenzae; H. influenzae, seven strains above, read-out: MIC, Geometric Mean) was 6.3 µg/mL (≈ 17.3 µM), the T1/2 ([1]; im, 20 mg/kg) was 0.37 h and the T1/2 ([1]; po, 20 mg/kg) was 1.6 h. It also gave a T1/2 ([1]; po, 100 mg/kg) of 1.5 h, an AUC (in vivo; im, 20 mg/kg, AUC*) of 14000 ng·h/mL and a Cmax (in vivo; im, 20 mg/kg) of 21000 ng/mL. It also gave a half-life (in vivo; im, 20 mg/kg) of 0.33 h, an AUC (in vivo; po, 20 mg/kg, AUC*) of 18000 ng·h/mL and a Cmax (in vivo; po, 20 mg/kg) of 12000 ng/mL. The half-life (in vivo; po, 20 mg/kg) was 1.2 h, the AUC (in vivo; po, 100 mg/kg, AUC) was 103000 ng·h/mL and the Cmax (in vivo; po, 100 mg/kg) was 56000 ng/mL. For the same compound, the half-life (in vivo; po, 100 mg/kg) was 2.3 h, the MIC ([2]; run 1) was 3.6 µg/mL (≈ 9.91 µM) and the MIC ([2]; run 2) was 4.1 µg/mL (≈ 11.3 µM). The MIC ([3]; run 1) was 1.2 µg/mL (≈ 3.3 µM) and the MIC ([3]; run 2) was 1.1 µg/mL (≈ 3.03 µM).
For `N[C@@H](C(=O)N[C@@H]1C(=O)N2C(C(=O)O)=C(Cl)CS[C@H]12)c1ccccc1` [Cefaclor], the ED50 (S. aureus BX-1633) was 2.2 mg/kg, the ED50 (S. pyogenes A20201) was 0.14 mg/kg and the ED50 (H. influenza A9729) was 1.6 mg/kg. The “Protective Dose PD50” value (P. mirabilis A9554) was 1.8, the MIC (S. pyogenes; S. pyogenes A9604, Compound 9 lot 2) was 0.2 µg/mL (≈ 0.544 µM) and the MIC (S. pyogenes; S. pyogenes A15040, Compound 9 lot 2) was 0.2 µg/mL (≈ 0.544 µM). The MIC (S. pyogenes; S. pyogenes A20065, Compound 9 lot 2) was 0.2 µg/mL (≈ 0.544 µM), the MIC (S. pyogenes; S. pyogenes Dick, Compound 9 lot 2) was 0.2 µg/mL (≈ 0.544 µM) and the MIC (S. pyogenes; Streptococcus pyogenes) was 0.2 µg/mL (≈ 0.544 µM). For the same compound, the MIC (S. pyogenes; Streptococcus pyogenes, read-out: MIC, Geometric Mean) was 0.2 µg/mL (≈ 0.544 µM), the MIC (S. pneumoniae) was 0.8 µg/mL (≈ 2.18 µM) and the MIC (S. pneumoniae; read-out: MIC, Geometric Mean) was 1.3 µg/mL (≈ 3.53 µM). It also gave an MIC (N. gonorrheae) of 0.8 µg/mL (≈ 2.18 µM), an MIC (N. gonorrheae; [4]) of 0.8 µg/mL (≈ 2.18 µM) and an MIC (N. gonorrheae; [5]) of 0.8 µg/mL (≈ 2.18 µM). It also gave an MIC (N. gonorrheae; [6]) of 0.8 µg/mL (≈ 2.18 µM), an MIC (N. gonorrheae; read-out: MIC, Geometric Mean) of 0.8 µg/mL (≈ 2.18 µM) and an MIC (N. meningitidis; N. meningitidis A20049) of 0.8 µg/mL (≈ 2.18 µM). For the same compound, the MIC (N. meningitidis; [7]) was 0.8 µg/mL (≈ 2.18 µM), the MIC (N. meningitidis; [8]) was 0.8 µg/mL (≈ 2.18 µM) and the MIC (N. meningitidis; [9]) was 0.8 µg/mL (≈ 2.18 µM). It also gave an MIC (N. meningitidis; Neisseria meningitidis) of 0.8 µg/mL (≈ 2.18 µM), an MIC (N. meningitidis; Neisseria meningitidis, read-out: MIC, Geometric Mean) of 0.8 µg/mL (≈ 2.18 µM) and an MIC (H. influenzae; H. influenzae A9729) of 0.8 µg/mL (≈ 2.18 µM). The MIC (H. influenzae; H. influenzae A9833) was 0.8 µg/mL (≈ 2.18 µM), the MIC (H. influenzae; H. influenzae A20177) was 0.8 µg/mL (≈ 2.18 µM) and the MIC (H. influenzae; H. influenzae A20193) was 0.8 µg/mL (≈ 2.18 µM). For the same compound, the MIC (H. influenzae; H. influenzae A21523) was 0.8 µg/mL (≈ 2.18 µM), the MIC (H. influenzae; H. influenzae A22482) was 0.4 µg/mL (≈ 1.09 µM) and the MIC (H. influenzae; H. influenzae A22483) was 0.4 µg/mL (≈ 1.09 µM). For the same compound, the MIC (H. influenzae; read-out: MIC, Geometric Mean, H. influenzae, seven strains above) was 0.66 µg/mL (≈ 1.79 µM), the MIC (B. fragilis; B. fragilis A20928-1, β-lactamase (-)) was 3.1 µg/mL (≈ 8.43 µM) and the MIC (B. fragilis; B. fragilis A20935, β-lactamase (-)) was 3.1 µg/mL (≈ 8.43 µM). For the same compound, the MIC (B. fragilis; B. fragilis A22021, β-lactamase (+)) was over 100 µg/mL, the MIC (B. fragilis; B. fragilis A22053, β-lactamase (+)) was 100 µg/mL (≈ 272 µM) and the MIC (B. fragilis; B. fragilis A22533, β-lactamase (+)) was over 100 µg/mL. The MIC (B. fragilis; B. fragilis A22693, β-lactamase (+)) was over 100 µg/mL, the MIC (B. fragilis; B. fragilis A22695, β-lactamase (+)) was 100 µg/mL (≈ 272 µM) and the MIC (B. fragilis; read-out: MIC, Geometric Mean, B. fragilis A20928-1, A21900, A20935, β-lactamase (-)) was 3.9 µg/mL (≈ 10.6 µM). The MIC (B. fragilis; read-out: MIC, Geometric Mean, B. fragilis A22053, A22021, A22693, β-lactamase (+)) was over 100 µg/mL, the MIC (B. fragilis; read-out: MIC, Geometric Mean, B. fragilis A22695, A22533, β-lactamase (+)) was over 100 µg/mL and the MIC (C. difficile A21675) was 25 µg/mL (≈ 68 µM). It also gave an MIC (P. acnes A21933) of 0.8 µg/mL (≈ 2.18 µM) and an MIC (P. anaerobius A21905) of 0.4 µg/mL (≈ 1.09 µM).
